Test results: patent US20100216891A1, “AROMATIC ANTIHYPERTENSIVE AGENT, AND METHOD FOR LOWERING BLOOD PRESSURE IN MAMMALS” (PANASONIC CORPORATION, priority 2008, published 2010)

Tested on: male Wister strain rats
Assay: Test Example 1: change in blood pressure of rats on presentation of aromatic compositions to the nostril
Assay type: in vivo
Conditions: rat, aroma presented to vicinity of nostril for 10 minutes, 30 minutes after the presentation, FIG. 1
Protocol: Focusing attention on aromatic components contained in a Melissa essential oil, one of plant essential oils, various aromatic compositions were presented to male Wister strain rats, and evaluation of change in caudal arterial pressure before and after the presentation was conducted. The test was carried out under conditions that avoid stress which may be placed on the rat as less as possible, and thus can be kept calm in an environment of the measurement of the blood pressure.
Male Wister strain rats of 7-week old were purchased, and after one week acclimatization period, the blood pressure was measured on 8-week old. All experimental animals were kept under a 12:12 light-dark cycle (light period: from 8 AM to 8 PM), with allowing for free access to chow and drinking water.
Training for adaptation of the 7-week old rat to a holder for the blood pressure measurement was carried out for one week. […]
For three days after completing the training, change in the blood pressure was measured upon presentation of the aromatic composition to the rats. […] The blood pressures before and after 30 minutes from presenting the aromatic compositions were measured, and the changes of the blood pressures were compared. […]

For `C=CC(C)(O)CCC=C(C)C` (centres unmarked) [linalool], the “change in diastolic blood pressure (caudal arterial pressure) after presentation compared with the values before the presentation” value was “lowering of the blood pressure”.

In the case of `CC(C)=CCCC(C)=CC=O` [citral], the “change in diastolic blood pressure (caudal arterial pressure) after presentation compared with the values before the presentation” value was “lowering of the blood pressure”.
